Entries after “also recorded” stand apart in the source; their conditions may differ.
Experiments:
Assay type in all cases: physicochemical
[1] = Dynamic vapour sorption (DVS) analysis in isotherm at 25° C.; conditions: for water still contained at the inflection at about 40% RH in desorption / weight change preserved in desorption up to 50% RH / change in weight in sorption at 20% RH / weight change in sorption at 70% RH / weight change in sorption at 90% RH / weight change at 0% RH in desorption / weight change in sorption at 30% RH: DVS isotherm 25° C.; for water still contained at the inflection at about 40% RH in desorption: about 40% RH (corresponds to about 4 water molecules); for weight change preserved in desorption up to 50% RH: stable up to 50% RH (corresponds to about 8 water molecules)
Method: (§1) To check the stability of the samples DVS (Dynamic vapour sorption) measurements were made using the DVS Intrinsic SMS instrument. The weight change of the sample associated with the change in humidity in a chamber at constant temperature was determined. Each sample was weighed in a range from […], with mass change equal to ±150 mg and mass resolution equal to ±0.1 μg, and positioned in the instrument and analysed at 25° C.±0.1 and 40° C.±0.1 in a relative humidity range comprised between 0% RH and 90% RH with increments of 10% RH, accuracy equal to ±1% RH. Moreover, the sample is brought from 0-90-0% RH with stages of 10% RH. The duration of these stages is as a function of the stabilization of the weight: if the weight change remains less than 0.002 dm (%)/dt (min) for 10 min, it goes on to the next stage. However, the stabilization for each stage cannot last more than 6 hours and in that case the instrument passes on to the next stage. The last stage contemplates the stabilization of the sample at 0% RH for 4 hours.
In order to verify the stability of the samples DVS (Dynamic vapour sorption) measurements were carried out using the DVS Intrinsic SMS instrument. The weight change of the sample associated with the change in humidity in a chamber at constant temperature was determined. Each sample was positioned in the instrument and analysed at 25° C.±0.1 in a humidity range that ranges from 0% to 90% RH with increments of 10% RH, RH accuracy equal to ±1% RH. The sample is stabilized at 0% RH for 4 hours. The duration of the single stages is as a function of the stabilization of the weight: if the weight change remains less than 0.002 dm (%)/dt (min) for 10 min, it goes on to the next stage. The stabilization cannot last more than 6 hours and in that case it passes on to the next stage. The last stage contemplates the stabilization of the sample at 0% RH for 4 hours.
(§2) To check the stability of the samples DVS (Dynamic vapour sorption) measurements were made using the DVS Intrinsic SMS instrument. The weight change of the sample associated with the change in humidity in a chamber at constant temperature was determined. Each sample was positioned in the instrument and analysed at 25° C.±0.1 in a humidity range from 0% RH to 90% RH with increments of 10% RH, accuracy equal to ±1% RH. The sample is stabilized at 0% RH for 4 hours. The duration of the single stages is as a function of the stabilization of the weight: if the weight change remains less than 0.002 dm (%)/dt (min) for 10 min, it goes on to the next stage. The stabilization cannot last more than 6 hours and in that case it passes on to the next stage. The last stage contemplates the stabilization of the sample at 0% RH for 4 hours.

[2] = Dynamic vapour sorption (DVS) analysis in isotherm at 40° C.; conditions: DVS isotherm 40° C.
Method: as §1
as §2, with “Each sample is positioned in” for “Each sample was positioned in”, “analysed at 40° C.±0.1 in” for “analysed at 25° C.±0.1 in”, “from 0% to 90%” for “from 0% RH to 90%”, “10% RH, RH accuracy equal” for “10% RH, accuracy equal”, “of the weight, if the” for “of the weight: if the”

[3] = Thermal stability by DSC and XPRD at variable temperature; conditions: for temperature up to which the form is stable: DSC / XPRD at variable temperature
Method: The thermal properties of the polymorphic forms described were obtained through differential scanning calorimetry (DSC). The DSC profiles were obtained with a heat flow instrument DSC 200 F3 Maia® (Netzsch). The DSC 200 F3 Maia® instrument was calibrated for temperature and enthalpy with an indium standard (melting point: 156.6° C.; ΔHf=28.45 Jg^−1). The samples were analysed according to the following conditions: • temperature range: 25-350° C.; • heating rate: 10° C./min; • sample-holder: perforated aluminium crucible; • gas: anhydrous nitrogen at a flow rate of 60 mL/min.
In order to determine the X-ray powder diffraction profiles (XPRD) a diffractometer Panalytical X'Pert Pro equipped with detector X'Celerator and X-ray tube (PW3373/00 Cu LFF DK312503) with current intensity 40 mA and voltage 40 kV was used. The instrument was calibrated with a silicon powder standard PANalytical640. The sample was positioned on a glass sample-carrier and analysed using the following parameters: • Scanning range(°): 3.0010-39.9997 • Data acquisition range(°): 0.0167 • Scanning mode: Continuous • Counter time (s): 12,700 • soller slits (rad): 0.04 • divergence slits: ¼ • anti-scatter slits: ½

[4] = Reprecipitation of FI/FII 1:1 (w/w) in ethyl acetate, 48 hours at 25° C., XPRD of the solid
Method: Into a 2 liter jacketed reactor 1000 ml of ethyl acetate (EtOAc) is loaded, the mechanical stirrer is actuated setting the rate to 200 rpm and then 25 g of polymorphic form FI and 25 g of polymorphic form FII are slowly added. It is left under stirring for 48 hours at a temperature of 25° C.
It is filtered on buckner and the white solid obtained is washed with 50 ml of EtOAc (1 Volume with respect to the loaded total dry solid NaHDC polymorphic form FI and NaHDC polymorphic form FII).

[5] = Stability tests according to guidelines ICH Q1A at 25° C./60% RH and 40° C./75% RH
[6] = Stability of the polymorphic form in the formulation of a medicinal product; conditions: inserted into the formulation of a medicinal product
[7] = listed as mixture of forms of NaHDC

| Structure (SMILES) | water still contained at the inflection at about 40% RH in desorption [1] | weight change preserved in desorption up to 50% RH [1] | weight change in sorption at 90% RH [1] | weight change at 0% RH in desorption [1] | weight change in sorption at 30% RH [1] | weight change in sorption at 70% RH [1] | weight change at 0% RH in desorption ([2]; desorption) | weight change in sorption at 70% RH ([2]; sorption) | weight change in sorption at 90% RH ([2]; sorption) | temperature up to which the form is stable [3] [°C] | also measured |
| --- | --- | --- | --- | --- | --- | --- | --- | --- | --- | --- | --- |
| C[C@H](CCC(=O)[O-])[C@H]1CC[C@H]2[C@@H]3C[C@H](O)[C@@H]4C[C@H](O)CC[C@]4(C)[C@H]3CC[C@]12C.[Na+] [NaHDC mixture, sodium 3α,6α-dihydroxy-5β,-cholan-24-oate] | about 18% | about 34% | about 35% | – | – | – | – | – | – | – | water still contained at the inflection at about 40% RH in desorption [1, 7]: about 18%; change in weight in sorption at 20% RH [1]: about 3%; change in weight in sorption at 20% RH [1, 7]: about 3%; weight change in sorption at 70% RH [1, 7]: 15% |
| C[C@H](CCC(=O)[O-])[C@H]1CC[C@H]2[C@@H]3C[C@H](O)[C@@H]4C[C@H](O)CC[C@]4(C)[C@H]3CC[C@]12C.[Na+] [amorphous form of NaHDC, sodium 3α,6α-dihydroxy-5β,-cholan-24-oate] | about 17% | about 34% | about 35% | weight that is less than the starting weight | about 6% | 22% | – | – | – | – | – |
| C[C@H](CCC(=O)[O-])[C@H]1CC[C@H]2[C@@H]3C[C@H](O)[C@@H]4C[C@H](O)CC[C@]4(C)[C@H]3CC[C@]12C.[Na+] [polymorphic form FI, sodium 3α,6α-dihydroxy-5β,-cholan-24-oate] | about 18% | about 34% | about 35% | zero | about 2% | – | zero | 8% | about 43% | 280 | change in weight at the plateau at 50-40% RH in desorption ([2]; desorption, 50-40% RH): about 17%; weight change in sorption at 30% RH ([2]; sorption, 30% RH): about 2%; interconversion of the polymorphic form on reprecipitation ([4]; FI and FII 1:1 weight/weight, ethyl acetate, 48 hours, room temperature (20-25° C.)): completely converts into the polymorphic form FII; also recorded: interconverts into the polymorphic form FII |
| C[C@H](CCC(=O)[O-])[C@H]1CC[C@H]2[C@@H]3C[C@H](O)[C@@H]4C[C@H](O)CC[C@]4(C)[C@H]3CC[C@]12C.[Na+] [polymorphic form FII, sodium 3α,6α-dihydroxy-5β,-cholan-24-oate] | about 18% | about 34% | about 35% | zero | – | less than 2% | about 6% | less than 2% | about 45% | 260 | hygroscopic behaviour ([1]; humidity sorption cycle in isotherm at 25° C. and at 40° C. (FIGS. 10-13, 27, 28, 58)): non-hygroscopic; shape of the desorption curve at 50-40% RH ([2]; desorption, 50-40% RH): plateau; relative humidity up to which the sample is stable in sorption ([2]; sorption): about 70 % RH; temperature of conversion into the polymorphic form FI on heating ([3]; heating, solid-solid conversion into form FI): 280 °C; thermodynamic stability among the forms ([4]; room temperature): most thermodynamically stable one at room temperature and up to 260 °C; also recorded: most thermodynamically stable form at room temperature; stability with regard to humidity in ICH Q1A tests [5]: surprising and unforeseeable stability with regard to humidity both at 25 °C and at 40 °C; stability over time in the formulation (interconversion into other polymorphic forms) [6]: stable over time |

— patent publication US9580458B2, “Polymorphic form of sodium hyodeoxycholate (NaHDC) and its preparation process” (PRODOTTI CHIMICI E […].P.A., priority 2013, dated 2017)
